Experimental data: PubChem BioAssay AID328 (DTP/NCI, 2004)
Where “and” joins values, the source holds several entries; their conditions need not be identical. Equal values may be shown once. Toxic doses and inconclusive results are not listed.

System: BDF1 mice, P388 leukemia ip, median survival T/C
Test: NCI In Vivo Anticancer Drug Screen. Data for tumor model P388 Leukemia (intraperitoneal) in B6D2F1 (BDF1) mice
Conditions: endpoint: median survival time, higher = longer survival
In short: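 Vehicle-dosed animals serve as the reference; survival of compound-dosed, tumour-implanted mice is divided by it.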

[1] = dose: 100.0 mg/kg/injection, schedule: Q01DX009 (ip), vehicle: saline with Tween-80
[2] = dose: 200.0 mg/kg/injection, schedule: Q01DX009 (ip), vehicle: saline with Tween-80
[3] = dose: 50.0 mg/kg/injection, schedule: Q01DX009 (ip), vehicle: saline with Tween-80
[4] = dose: 100.0 mg/kg/injection, schedule: Q04DX003 (ip), vehicle: Klucel (hydroxypropylcellulose) (HPC)
[5] = dose: 200.0 mg/kg/injection, schedule: Q04DX003 (ip), vehicle: Klucel (hydroxypropylcellulose) (HPC)

For `COC(=O)CCc1c[nH]c2ccc(N(CCCl)CCCl)cc12`, the T/C (dose: 0.03 mg/kg/injection, schedule: Q04DX003 (ip), vehicle: saline with Tween-80) was 105 % of control, the T/C (dose: 0.04 mg/kg/injection, schedule: Q01DX009 (ip), vehicle: saline with Tween-80) was 122 % of control and the T/C (dose: 0.1 mg/kg/injection, schedule: Q01DX009 (ip), vehicle: saline with Tween-80) was 154 % of control and 163 % of control. For the same molecule, the T/C (dose: 0.16 mg/kg/injection, schedule: Q04DX003 (ip), vehicle: saline with Tween-80) was 113 % of control, the T/C (dose: 0.2 mg/kg/injection, schedule: Q01DX009 (ip), vehicle: saline with Tween-80) was 172 % of control and the T/C (dose: 0.25 mg/kg/injection, schedule: Q04DX003 (ip), vehicle: saline with Tween-80) was 166 % of control. For the same molecule, the T/C (dose: 0.3 mg/kg/injection, schedule: Q01DX009 (ip), vehicle: saline with Tween-80) was 155 % of control and 181 % of control, the T/C (dose: 0.5 mg/kg/injection, schedule: Q04DX003 (ip), vehicle: saline with Tween-80) was 170 % of control and the T/C (dose: 0.63 mg/kg/injection, schedule: Q04DX003 (ip), vehicle: saline with Tween-80) was 113 % of control. The T/C (dose: 0.8 mg/kg/injection, schedule: Q01DX009 (ip), vehicle: saline with Tween-80) was 166 % of control, the T/C (dose: 1.0 mg/kg/injection, schedule: Q04DX003 (ip), vehicle: saline with Tween-80) was 241 % of control and the T/C (dose: 1.25 mg/kg/injection, schedule: Q01DX009 (ip), vehicle: saline with Tween-80) was 196 % of control and 212 % of control. The T/C (dose: 1.3 mg/kg/injection, schedule: Q04DX003 (ip), vehicle: saline with Tween-80) was 205 % of control, the T/C (dose: 2.0 mg/kg/injection, schedule: Q04DX003 (ip), vehicle: saline with Tween-80) was 265 % of control and 217 % of control and the T/C (dose: 2.5 mg/kg/injection, schedule: Q01DX009 (ip), vehicle: saline with Tween-80) was 250 % of control. The T/C (dose: 3.0 mg/kg/injection, schedule: Q04DX003 (ip), vehicle: saline with Tween-80) was 260 % of control and 290 % of control, the T/C (dose: 4.4 mg/kg/injection, schedule: Q04DX003 (ip), vehicle: saline with Tween-80) was 280 % of control and 300 % of control and the T/C (dose: 4.5 mg/kg/injection, schedule: Q04DX003 (ip), vehicle: saline with Tween-80) was 260 % of control. For the same molecule, the T/C (dose: 6.7 mg/kg/injection, schedule: Q04DX003 (ip), vehicle: saline with Tween-80) was 300 % of control, the T/C (dose: 6.75 mg/kg/injection, schedule: Q04DX003 (ip), vehicle: saline with Tween-80) was 260 % of control and the T/C (dose: 10.0 mg/kg/injection, schedule: Q04DX003 (ip), vehicle: saline with Tween-80) was 200 % of control. The T/C (dose: 15.0 mg/kg/injection, schedule: Q04DX003 (ip), vehicle: saline with Tween-80) was 120 % of control and the T/C (dose: 40.0 mg/kg/injection, schedule: Q04DX003 (ip), vehicle: saline with Tween-80) was 272 % of control.

With `CC(=N\O)/C(C)=N/O.CC(=N\O)/C(C)=N/O.[Pd]` the T/C (dose: 1.57 mg/kg/injection, schedule: Q01DX009 (ip), vehicle: Klucel (hydroxypropylcellulose) (HPC)) was 100 % of control, the T/C (dose: 3.13 mg/kg/injection, schedule: Q01DX009 (ip), vehicle: Klucel (hydroxypropylcellulose) (HPC)) was 100 % of control and the T/C (dose: 6.25 mg/kg/injection, schedule: Q01DX009 (ip), vehicle: Klucel (hydroxypropylcellulose) (HPC)) was 100 % of control.

In the case of `CC(NC(=O)C(C)NC(=O)C(N)CCS(C)(=O)=NP(=O)(O)O)C(=O)O` (stereo unspecified), the T/C (dose: 12.5 mg/kg/injection, schedule: Q01DX009 (ip), vehicle: saline) is reported as 101 % of control and the T/C (dose: 25.0 mg/kg/injection, schedule: Q01DX009 (ip), vehicle: saline) is reported as 110 % of control.

In the case of `CC1(C)OC2C(CO)OC(n3cnc4c(N)ncnc43)C2O1` (stereo unspecified), the T/C (dose: 75.0 mg/kg/injection, schedule: Q04DX003 (ip), vehicle: Klucel (hydroxypropylcellulose) (HPC)) is reported as 100 % of control and the T/C (dose: 300.0 mg/kg/injection, schedule: Q04DX003 (ip), vehicle: Klucel (hydroxypropylcellulose) (HPC)) is reported as 100 % of control.

In the case of `CC1(C#N)CCC(CCc2ccccc2)C(=O)C1` (stereo unspecified), the T/C (dose: 75.0 mg/kg/injection, schedule: Q04DX003 (ip), vehicle: saline) is reported as 95 % of control, the T/C (dose: 150.0 mg/kg/injection, schedule: Q04DX003 (ip), vehicle: saline) is reported as 87 % of control and the T/C (dose: 300.0 mg/kg/injection, schedule: Q04DX003 (ip), vehicle: saline) is reported as 104 % of control.

With `O=NN(CCCl)C(=O)NC1CCC(=O)NC1=O` (stereo unspecified) the T/C (dose: 3.13 mg/kg/injection, schedule: Q04DX003 (ip), vehicle: saline with Tween-80) was 272 % of control, the T/C (dose: 4.0 mg/kg/injection, schedule: Q04DX003 (ip), vehicle: saline with Tween-80) was 230 % of control and the T/C (dose: 6.0 mg/kg/injection, schedule: Q04DX003 (ip), vehicle: saline with Tween-80) was 230 % of control. For the same molecule, the T/C (dose: 6.25 mg/kg/injection, schedule: Q04DX003 (ip), vehicle: saline with Tween-80) was 272 % of control, the T/C (dose: 9.0 mg/kg/injection, schedule: Q04DX003 (ip), vehicle: gum acacia) was 250 % of control and the T/C (dose: 9.0 mg/kg/injection, schedule: Q04DX003 (ip), vehicle: saline with Tween-80) was 230 % of control. For the same molecule, the T/C (dose: 12.5 mg/kg/injection, schedule: Q04DX003 (ip), vehicle: saline with Tween-80) was 104 % of control and the T/C (dose: 20.0 mg/kg/injection, schedule: Q04DX003 (ip), vehicle: gum acacia) was 112 % of control.

`NC(Cc1ccccc1Cl)c1nn[nH]n1` (stereo unspecified) was tested, and the T/C (dose: 50.0 mg/kg/injection, schedule: Q04DX002 (ip), vehicle: saline with Tween-80) was 100 % of control and the T/C (dose: 200.0 mg/kg/injection, schedule: Q04DX002 (ip), vehicle: saline with Tween-80) was 121 % of control.

For `Cc1cc(N=NC(N)=S)c2ccccc2c1O`, the T/C [1] was 103 % of control and the T/C [2] was 100 % of control.

In the case of `CN(/N=N/N(C)c1ccccc1)c1ccccc1`, the T/C (dose: 100.0 mg/kg/injection, schedule: Q04DX003 (ip), vehicle: saline sonified) is reported as 110 % of control, the T/C [2] is reported as 120 % of control and the T/C (dose: 200.0 mg/kg/injection, schedule: Q04DX003 (ip), vehicle: saline sonified) is reported as 110 % of control. The T/C (dose: 400.0 mg/kg/injection, schedule: Q01DX009 (ip), vehicle: saline with Tween-80) was 110 % of control and the T/C (dose: 400.0 mg/kg/injection, schedule: Q04DX003 (ip), vehicle: saline sonified) was 100 % of control.

`S=c1[nH]nc2ccccn12` was tested, and the T/C [3] was 102 % of control, the T/C [1] was 100 % of control and the T/C [2] was 102 % of control.

In the case of `CCc1nc(N)nc(N)c1-c1ccc(Cl)c(Cl)c1`, the T/C (dose: 6.25 mg/kg/injection, schedule: Q01DX010 (ip), vehicle: carboxymethylcellulose (CMC)) is reported as 110 % of control, the T/C (dose: 8.0 mg/kg/injection, schedule: Q01DX009 (sc), vehicle: Klucel (hydroxypropylcellulose) (HPC)) is reported as 90 % of control and the T/C (dose: 8.0 mg/kg/injection, schedule: Q03HX024 (ip), vehicle: Klucel (hydroxypropylcellulose) (HPC)) is reported as 90 % of control. For the same molecule, the T/C (dose: 12.5 mg/kg/injection, schedule: Q01DX010 (ip), vehicle: carboxymethylcellulose (CMC)) was 100 % of control, the T/C (dose: 25.0 mg/kg/injection, schedule: Q01DX010 (ip), vehicle: carboxymethylcellulose (CMC)) was 90 % of control and the T/C (dose: 32.0 mg/kg/injection, schedule: Q04DX003 (ip), vehicle: Klucel (hydroxypropylcellulose) (HPC)) was 163 % of control. For the same molecule, the T/C (dose: 64.0 mg/kg/injection, schedule: Q08DX002 (ip), vehicle: Klucel (hydroxypropylcellulose) (HPC)) was 86 % of control, the T/C (dose: 128.0 mg/kg/injection, schedule: Q01DX001 (sc), vehicle: Klucel (hydroxypropylcellulose) (HPC)) was 100 % of control and the T/C (dose: 128.0 mg/kg/injection, schedule: Q08DX002 (ip), vehicle: Klucel (hydroxypropylcellulose) (HPC)) was 86 % of control.

In the case of `CCCCCCC(=O)CC(SCC)c1ccccc1Cl` (stereo unspecified), the T/C [3] is reported as 93 % of control, the T/C [1] is reported as 107 % of control and the T/C [2] is reported as 121 % of control.

`COc1ccc(/C=C(/C#N)c2ccccc2)cc1` was tested, and the T/C (dose: 25.0 mg/kg/injection, schedule: Q01DX009 (ip), vehicle: saline with Tween-80) was 93 % of control, the T/C [3] was 97 % of control and the T/C [1] was 103 % of control. For the same molecule, the T/C [2] was 111 % of control.

With `CP(c1ccccc1)c1ccccc1` the T/C (dose: 50.0 mg/kg/injection, schedule: Q01DX009 (ip), vehicle: Klucel (hydroxypropylcellulose) (HPC)) was 109 % of control, the T/C (dose: 50.0 mg/kg/injection, schedule: Q04DX003 (ip), vehicle: Klucel (hydroxypropylcellulose) (HPC)) was 113 % of control and the T/C [4] was 113 % of control. For the same molecule, the T/C (dose: 133.0 mg/kg/injection, schedule: Q01DX009 (ip), vehicle: Klucel (hydroxypropylcellulose) (HPC)) was 100 % of control, the T/C (dose: 200.0 mg/kg/injection, schedule: Q01DX009 (ip), vehicle: Klucel (hydroxypropylcellulose) (HPC)) was 107 % of control and the T/C [5] was 104 % of control. The T/C (dose: 300.0 mg/kg/injection, schedule: Q01DX009 (ip), vehicle: Klucel (hydroxypropylcellulose) (HPC)) was 123 % of control.

For `CC(=O)Nc1ccc(N=Nc2ccccc2)cc1F`, the T/C (dose: 100.0 mg/kg/injection, schedule: Q01DX009 (ip), vehicle: Klucel (hydroxypropylcellulose) (HPC)) was 120 % of control, the T/C [4] was 104 % of control and the T/C [5] was 108 % of control. For the same molecule, the T/C (dose: 400.0 mg/kg/injection, schedule: Q01DX009 (ip), vehicle: Klucel (hydroxypropylcellulose) (HPC)) was 120 % of control and the T/C (dose: 400.0 mg/kg/injection, schedule: Q04DX003 (ip), vehicle: Klucel (hydroxypropylcellulose) (HPC)) was 95 % of control.
